From US7217730B2, “Method for the use of pyranoindole derivatives to treat infection with Hepatitis C virus” (Wyeth, priority 2002, dated 2007)

Biological target: T1, NS5B from the BK strain (genotype 1b) (Hepatitis C virus genotype 1b, UniProt P26663)
T1 construct: NS5B from the BK strain (genotype 1b) is expressed in E. coli as a protein in which the 21 C-terminal amino acids are replaced; made in house; host or cells: E. coli
Test: Hepatitis C polymerase inhibition, NS5B BK strain, 33P-GTP filter assay
Format: biochemical
Conditions: Table 1A; for inhibition at 20 µM: 20 μM compound, read-out: HCV pol % inh at 20 μM; for IC50: NS5B BK strain, read-out: HCV pol BK IC50
Outline: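 Radiolabelled RNA synthesis was measured by filter capture and scintillation counting after EDTA stop. His-tagged, C-terminally truncated (Δ21) genotype 1b BK NS5B from E. coli, pre-exposed to compound for 15 min, copied a self-primed RNA template (~3 nM) with α-[33P]-GTP for 2 h at room temperature.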

T1 sequence (P26663 2420-2989): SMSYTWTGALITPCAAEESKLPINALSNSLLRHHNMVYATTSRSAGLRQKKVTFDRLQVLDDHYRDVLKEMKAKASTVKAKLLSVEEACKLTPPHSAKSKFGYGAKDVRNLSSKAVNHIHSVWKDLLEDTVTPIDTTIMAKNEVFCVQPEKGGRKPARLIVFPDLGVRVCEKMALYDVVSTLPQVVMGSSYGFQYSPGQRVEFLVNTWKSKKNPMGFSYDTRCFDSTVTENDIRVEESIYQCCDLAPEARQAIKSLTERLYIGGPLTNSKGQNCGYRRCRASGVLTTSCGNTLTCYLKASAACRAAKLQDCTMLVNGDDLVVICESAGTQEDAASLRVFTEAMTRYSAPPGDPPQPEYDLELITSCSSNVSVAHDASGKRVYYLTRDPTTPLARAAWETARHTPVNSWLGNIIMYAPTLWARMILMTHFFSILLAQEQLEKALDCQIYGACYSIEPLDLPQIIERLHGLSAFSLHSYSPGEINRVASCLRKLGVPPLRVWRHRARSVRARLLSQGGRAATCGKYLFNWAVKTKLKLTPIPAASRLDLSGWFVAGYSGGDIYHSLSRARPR

## O=C(O)CC1(c2ccccc2)OCCc2c1[nH]c1c(Cl)cc(Cl)c(Cl)c21 (centres unmarked) [Example 160, (5,6,8-trichloro-1-phenyl-1,3,4,9-tetrahydropyrano[3,4-b]indol-1-yl)acetic acid]
  inhibition at 20 µM: 15%
  IC50: > 20 µM

## O=C(O)CC1(c2ccc(C(=O)O)cc2)OCCc2c1[nH]c1c(Cl)cc(Cl)c(Cl)c21 (centres unmarked) [Example 161, 4-[1-(carboxymethyl)-5,6,8-trichloro-1,3,4,9-tetrahydropyrano[3,4-b]indol-1-yl]benzoic acid]
  inhibition at 20 µM: 74%
  IC50: 0.3 µM

## O=C(O)CC1(c2ccoc2)OCCc2c1[nH]c1c(Cl)cc(Cl)c(Cl)c21 (centres unmarked) [Example 162, [5,6,8-trichloro-1-(3-furyl)-1,3,4,9-tetrahydropyrano[3,4-b]indol-1-yl]acetic acid]
  inhibition at 20 µM: 73%
  IC50: 2.4 µM

## CCC1(CC(=O)O)OCCc2c1[nH]c1c(F)cc(C)c(Br)c21 (centres unmarked) [Example 164, (5-bromo-1-ethyl-8-fluoro-6-methyl-1,3,4,9-tetrahydropyrano[3,4-b]indol-1-yl)acetic acid]
  inhibition at 20 µM: 77%
  IC50: 2 µM

## CCCC1(CC(=O)O)OCCc2c1[nH]c1c(F)cc(C)c(Br)c21 (centres unmarked) [Example 165, (5-bromo-8-fluoro-6-methyl-1-propyl-1,3,4,9-tetrahydropyrano[3,4-b]indol-1-yl)acetic acid]
  inhibition at 20 µM: 89%
  IC50: 0.6 µM

## Cc1cc(F)c2[nH]c3c(c2c1Br)CCOC3(CC(=O)O)C(C)C (centres unmarked) [Example 166, (5-bromo-8-fluoro-1-isopropyl-6-methyl-1,3,4,9-tetrahydropyrano[3,4-b]indol-1-yl)acetic acid]
  inhibition at 20 µM: 55%
  IC50: 3.7 µM

## CCCCC1(CC(=O)O)OCCc2c1[nH]c1c(F)cc(C)c(Br)c21 (centres unmarked) [Example 167, (5-bromo-1-butyl-8-fluoro-6-methyl-1,3,4,9-tetrahydropyrano[3,4-b]indol-1-yl)acetic acid]
  inhibition at 20 µM: 80%
  IC50: 3 µM

## Cc1cc(F)c2[nH]c3c(c2c1Br)CCOC3(CC(=O)O)c1ccccc1 (centres unmarked) [Example 168, (5-bromo-8-fluoro-6-methyl-1-phenyl-1,3,4,9-tetrahydropyrano[3,4-b]indol-1-yl)acetic acid]
  inhibition at 20 µM: 4%
  IC50: > 10 µM

## Cc1cc(F)c2[nH]c3c(c2c1Br)CCOC3(CC(=O)O)c1ccc(C(=O)O)cc1 (centres unmarked) [Example 169, 4-[5-bromo-1-(carboxymethyl)-8-fluoro-6-methyl-1,3,4,9-tetrahydropyrano[3,4-b]indol-1-yl]benzoic acid]
  inhibition at 20 µM: 82%
  IC50: 0.22 µM

## CCCCC1(CC(=O)O)OCCc2c1[nH]c1c(F)cc(C)c(C#N)c21 (centres unmarked) [Example 170, (1-butyl-5-cyano-8-fluoro-6-methyl-1,3,4,9-tetrahydropyrano[3,4-b]indol-1-yl)acetic acid]
  inhibition at 20 µM: 53%
  IC50: 1 µM

## Cc1cc(F)c2[nH]c3c(c2c1C#N)CCOC3(CC(=O)O)c1ccccc1 (centres unmarked) [Example 171, (5-cyano-8-fluoro-6-methyl-1-phenyl-1,3,4,9-tetrahydropyrano[3,4-b]indol-1-yl)acetic acid]
  inhibition at 20 µM: 3%
  IC50: > 10 µM

## Cc1cc(F)c2[nH]c3c(c2c1C#N)CCOC3(CC(=O)O)c1ccc(C(=O)O)cc1 (centres unmarked) [Example 172, 4-[1-(carboxymethyl)-5-cyano-8-fluoro-6-methyl-1,3,4,9-tetrahydropyrano[3,4-b]indol-1-yl]benzoic acid]
  inhibition at 20 µM: 74%
  IC50: 1.7 µM

## Cc1cc(Cl)c2[nH]c3c(c2c1Br)CCOC3(C)CC(=O)O (centres unmarked) [Example 173, (5-bromo-8-chloro-1,6-dimethyl-1,3,4,9-tetrahydropyrano[3,4-b]indol-1-yl)acetic acid]
  inhibition at 20 µM: 19%
  IC50: > 5 µM

## CCC1(CC(=O)O)OCCc2c1[nH]c1c(Cl)cc(C)c(Br)c21 (centres unmarked) [Example 174, (5-bromo-8-chloro-1-ethyl-6-methyl-1,3,4,9-tetrahydropyrano[3,4-b]indol-1-yl)acetic acid]
  inhibition at 20 µM: 70%
  IC50: > 5 µM

## CCCC1(CC(=O)O)OCCc2c1[nH]c1c(Cl)cc(C)c(Br)c21 (centres unmarked) [Example 175, (5-bromo-8-chloro-6-methyl-1-propyl-1,3,4,9-tetrahydropyrano[3,4-b]indol-1-yl)acetic acid]
  inhibition at 20 µM: 84%
  IC50: 0.5 µM

## Cc1cc(Cl)c2[nH]c3c(c2c1Br)CCOC3(CC(=O)O)C(C)C (centres unmarked) [Example 176, (5-bromo-8-chloro-1-isopropyl-6-methyl-1,3,4,9-tetrahydropyrano[3,4-b]indol-1-yl)acetic acid]
  inhibition at 20 µM: 49%
  IC50: > 5 µM

## CCCCC1(CC(=O)O)OCCc2c1[nH]c1c(Cl)cc(C)c(Br)c21 (centres unmarked) [Example 177, (5-bromo-1-butyl-8-chloro-6-methyl-1,3,4,9-tetrahydropyrano[3,4-b]indol-1-yl)acetic acid]
  inhibition at 20 µM: 70%
  IC50: 4 µM

## C/C=C/CCC1(CC(=O)O)OCCc2c1[nH]c1c(Cl)cc(C)c(Br)c21 (centres unmarked) [Example 178, {5-bromo-8-chloro-6-methyl-1-[(3E)-pent-3-enyl]-1,3,4,9-tetrahydropyrano[3,4-b]indol-1-yl}acetic acid]
  inhibition at 20 µM: < 32%
  IC50: > 5 µM

## Cc1cc(Cl)c2[nH]c3c(c2c1Br)CCOC3(CC(=O)O)c1ccccc1 (centres unmarked) [Example 179, (5-bromo-8-chloro-6-methyl-1-phenyl-1,3,4,9-tetrahydropyrano[3,4-b]indol-1-yl)acetic acid]
  inhibition at 20 µM: 15%
  IC50: > 5 µM

## Cc1cc(Cl)c2[nH]c3c(c2c1Br)CCOC3(CC(=O)O)c1ccc(C(=O)O)cc1 (centres unmarked) [Example 180, 4-[5-bromo-1-(carboxymethyl)-8-chloro-6-methyl-1,3,4,9-tetrahydropyrano[3,4-b]indol-1-yl]benzoic acid]
  inhibition at 20 µM: 92%
  IC50: 0.81 µM

## Cc1cc(Cl)c2[nH]c3c(c2c1C#N)CCOC3(C)CC(=O)O (centres unmarked) [Example 181, (8-chloro-5-cyano-1,6-dimethyl-1,3,4,9-tetrahydropyrano[3,4-b]indol-1-yl)acetic acid]
  inhibition at 20 µM: 14%
  IC50: > 5 µM

## CCC1(CC(=O)O)OCCc2c1[nH]c1c(Cl)cc(C)c(C#N)c21 (centres unmarked) [Example 182, (8-chloro-5-cyano-1-ethyl-6-methyl-1,3,4,9-tetrahydropyrano[3,4-b]indol-1-yl)acetic acid]
  inhibition at 20 µM: 55%
  IC50: > 5 µM

## CCCC1(CC(=O)O)OCCc2c1[nH]c1c(Cl)cc(C)c(C#N)c21 (centres unmarked) [Example 183, (8-chloro-5-cyano-6-methyl-1-propyl-1,3,4,9-tetrahydropyrano[3,4-b]indol-1-yl)acetic acid]
  inhibition at 20 µM: 88%
  IC50: 0.59 µM

## Cc1cc(Cl)c2[nH]c3c(c2c1C#N)CCOC3(CC(=O)O)C(C)C (centres unmarked) [Example 184, (8-chloro-5-cyano-1-isopropyl-6-methyl-1,3,4,9-tetrahydropyrano[3,4-b]indol-1-yl)acetic acid]
  inhibition at 20 µM: 39%
  IC50: > 5 µM

## CCCCC1(CC(=O)O)OCCc2c1[nH]c1c(Cl)cc(C)c(C#N)c21 (centres unmarked) [Example 185, (1-butyl-8-chloro-5-cyano-6-methyl-1,3,4,9-tetrahydropyrano[3,4-b]indol-1-yl)acetic acid]
  inhibition at 20 µM: 69%
  IC50: 4 µM
